{
  "source": "patent US20260315653A1",
  "about": "“ANTICOAGULANT COMPOSITIONS COMPRISING ANTI-PLATELET AND ANTI-INFLAMMATORY DRUGS AND METHODS AND DEVICES FOR THEIR USE” (Elixir Medical Corporation, priority 2023, published 2026)",
  "key": {"[1]": {"test_system": "blood clotting (fresh pig blood)", "assay": "Activated clotting time (ACT) of EDTA or analogues in fresh pig blood (Example 12)", "conditions": "for Increase in clotting time compared to control: control 154 sec", "method": "The activated clotting time (ACT) evaluation of EDTA or analogues was performed in fresh pig blood and recorded employing the Hemochron® Response device.\nThe ACT measurements were made in fresh pig blood. 1.0 ml of fresh pig blood was added to a test tube containing an activator (Hemochron@Celite@ ACT tubes, Lot F8FTE026 from Accriva Diagnostics, Inc.). A target amount of drug solution was then added into the test tube. The test tube was gently swirled so that the blood and drug was well-mixed. 0.1 ml of 0.3M calcium chloride was then added. The tube was gently shaken before being inserted into the Hemochron Response detector. The ACT read out was recorded and reported. The ACT of the control blood in the absence of any drug as first determined to establish a baseline. Then ACT was determined in the presence of different concentrations of EDTA or analogues as a single component."}, "[2]": {"assay": "pH of 1 mg/ml EDTA or analogue in water or phosphate buffer", "format": "physicochemical", "description": "Based on the pH of EDTA or analogues in water and in 0.1M phosphate buffered saline as show in Table 2, EDTA disodium salt or dipotassium salt has a pH close to neutral pH in human body (6.42-6.92), whereas EDTA tetrasodium or trisodium has a very basic pH (>8.0) in human body. EDTA disodium or dipotassium is preferred in the examples."}, "[3]": {"assay": "In-vitro elution of coated stents in 0.01M phosphate buffered saline at 37° C. (HPLC)", "format": "physicochemical", "conditions": "5 min", "method": "(§1) In-Vitro Elution evaluation of the EDTA coated stent above prepared was performed in 0.01M phosphate buffered saline at 37° C. water shaking bath then tested on High Performance Liquid Chromatography (HPLC). EDTA was separated from interfering peaks by a Carbon18 reverse phase column and quantified with an external EDTA calibration standard solution prepared at similar concentrations. The percentage of EDTA eluted was calculated during each time point.\nas §1, with “of Tetra acetoxymethyl ester” for “of the”, “stent” for “stent above prepared”, “(HPLC). Tetra acetoxymethyl ester” for “(HPLC).”, “external tetra acetoxymethyl ester” for “external”, “of tetra acetoxymethyl ester” for “of”\nIn-Vitro Elution evaluation of the EDTA complex coated stent was performed in 0.01M phosphate buffered saline at 37° C. water shaking bath then tested on High Performance Liquid Chromatography (HPLC). EDTA disodium was separated from interfering peaks by a Carbon18 reverse phase column and quantified with an external EDTA disodium calibration standard solution prepared at similar concentrations. […]"}, "[4]": {"assay": "pH of 1 mg/ml EDTA or analogue in water or phosphate buffer", "format": "physicochemical", "conditions": "1 mg/ml in 0.01 M pH 7.4 phosphate buffer; 21.8-22.3 ° C.; listed as EDTA tetra sodium"}},
  "data": [
    {"smiles": "O=C(O)CN(CCN(CC(=O)O)CC(=O)O)CC(=O)O", "note": "[EDTA•4Na•xH2O]", "values": [
      {"measurement": "Clotting time (ACT)", "setting": "[1]; 100 ng/mg", "value": 204, "unit": "s"},
      {"measurement": "Increase in clotting time compared to control", "setting": "[1]; 100 ng/mg", "value": 50, "unit": "s"},
      {"measurement": "Clotting time (ACT)", "setting": "[1]; 200 ng/mg", "value": 275, "unit": "s"},
      {"measurement": "Increase in clotting time compared to control", "setting": "[1]; 200 ng/mg", "value": 121, "unit": "s"},
      {"measurement": "Clotting time (ACT)", "setting": "[1]; 250 ng/mg", "value": 329, "unit": "s"},
      {"measurement": "Increase in clotting time compared to control", "setting": "[1]; 250 ng/mg", "value": 175, "unit": "s"},
      {"measurement": "Clotting time (ACT)", "setting": "[1]; 300 ng/mg", "value": ">500", "unit": "s"},
      {"measurement": "Increase in clotting time compared to control", "setting": "[1]; 300 ng/mg", "value": ">346", "unit": "s"},
      {"measurement": "blood coagulation compared to the blood control", "setting": "[1]; EDTA 200 ng/mg, sodium salts 300 ng/mg, listed as EDTA tetra sodium salt", "value": "The same trend"},
      {"measurement": "pH", "setting": "[2]; 1 mg/ml in d-water, 21.8-22.0 ° C., listed as EDTA tetra sodium", "value": 9.61},
      {"measurement": "pH", "setting": "[2]; in water and phosphate buffered saline, listed as EDTA tetrasodium", "value": "> 8.0"},
      {"measurement": "Cumulative percent release of EDTA", "setting": "[3]", "value": "about 99.8%"},
      {"measurement": "pH", "setting": "[4]", "value": 8.27}
    ]}
  ]
}
